{"source": "patent US20220331445A1", "about": "“HIGH DENSITY LIPOPROTEIN-LIKE NANOPARTICLES AS INDUCERS OF FERROPTOSIS IN CANCER” (Northwestern University, priority 2019, published 2022)", "key": {"Ramos cells": {"tested_on": "Ramos cells", "assay": "Cell death (MTS) assay in Ramos cells", "assay_type": "cell-based, human", "settings": "Ramos cells cultured with HDL NPs; inhibitor added at 1 μM", "experimental": "(§1) MTS assays (CellTiter; Promega) were conducted as described previously. For the Ramos, SUDHL4, Raji, Daudi, Namalwa, SUDHL6 and Jurkat cells were plated at a density of 2×10^5 cells/mL, and cultured for 72 hours prior to assay. SUDHL1, SR-786, and U937 cells were plated at a density of 5×10^4 cells/mL and cultured for 5 days prior to MTS assay. The SCARB1 blocking and isotype control antibodies were added at a dilution of 1:1000 to 1:250. Ferrostatin-1 and deferoxamine (DFO) were obtained from Sigma Aldrich, and added at a final concentration of 1 μM. MTS values were standardized to PBS control."}, "SUDHL4 cells": {"tested_on": "SUDHL4 cells", "assay": "Cell death (MTS) assay in SUDHL4 cells", "assay_type": "cell-based, human", "settings": "SUDHL4 cells cultured with HDL NPs; inhibitor added at 1 μM", "experimental": "as §1"}, "[1]": {"tested_on": "786-O (renal cell carcinoma-clear cell) cells", "assay": "MTS cell death / rescue assay in 786-O cells", "assay_type": "cell-based", "settings": "786-O cells with HDL NPs"}, "[2]": {"tested_on": "769-P, a clear cell renal carcinoma cell line", "assay": "MTS cell death / rescue assay in 769-P cells", "assay_type": "cell-based", "settings": "769-P cells with HDL NPs"}, "OVCAR5 cell line": {"tested_on": "OVCAR5 cell line", "assay": "MTS cell death / rescue assay in OVCAR5 cells", "assay_type": "cell-based", "settings": "OVCAR5 cells with HDL NPs"}, "[3]": {"tested_on": "OVCAR5 CP Resistant Cell Line", "assay": "MTS cell death / rescue assay in OVCAR5 CP Resistant cells", "assay_type": "cell-based", "settings": "OVCAR5 CP Resistant cells with HDL NPs"}}, "data": [{"smiles": "CCOC(=O)c1ccc(NC2CCCCC2)c(N)c1", "note": "[ferrostatin-1]", "values": [{"measurement": "effect on HDL NP induced cell death", "setting": "Ramos cells", "value": "significantly inhibited"}, {"measurement": "effect on HDL NP induced cell death", "setting": "SUDHL4 cells", "value": "significantly inhibited"}, {"measurement": "effect on cell death induced by HDL NPs (MTS Rescue Assay)", "setting": "[1]", "value": "rescued"}, {"measurement": "effect on cell death induced by HDL NPs (MTS Rescue Assay)", "setting": "[1]; listed as Ferrostatin-1", "value": "dramatic effects"}, {"measurement": "effect on cell death induced by HDL NPs (MTS)", "setting": "[2]", "value": "rescued"}, {"measurement": "effect on cell death induced by HDL NPs (MTS)", "setting": "OVCAR5 cell line", "value": "rescued"}, {"measurement": "effect on cell death induced by HDL NPs (MTS)", "setting": "[3]", "value": "rescued"}]}]}
